Reference: patent US5728726A, “Method and compositions for inhibiting protein kinases” (Cor Therapeutics, Inc., priority 1995, dated 1998)
pIC50: −log10 of the molar value. Like-named read-outs stand apart in the source and are kept apart here.

Columns and labels:
[1] = tested on: CCD18; test: cell proliferation under normal tissue culture conditions, CCD18; format: cell-based; conditions: Homo sapiens, read-out: IC50 CCD18
[2] = tested on: HS27; test: cell proliferation under normal tissue culture conditions, HS27; format: cell-based; conditions: Homo sapiens, read-out: IC50 HS27
[3] = tested on: WS1; test: cell proliferation under normal tissue culture conditions, WS1; format: cell-based; conditions: Homo sapiens, read-out: IC50 WS1
[4] = tested on: human cell lines (HS68, HS 27, CCD18, and WS1); test: cells
[5] = molecular target: recombinant c-src (Homo sapiens, UniProt P12931); test: recombinant c-src kinase microtiter plate assay
Protocol: After a 20 minute incubation at 37° C., the reactions were stopped by adding 10 ul of 50% acetic acid, the wells were washed and anti-phosphotyrosine antibody was used to detect the tyrosine phosphorylated substrate under the same conditions as described above for the detection of phosphorylated PDGF receptor.

[6] = molecular target: human beta PDGFR (Homo sapiens, UniProt P09619); test: beta PDGF receptor autophosphorylation in HR5 cells
[7] = molecular target: Protein Kinase A (PKA) (Homo sapiens, UniProt P17612); test: Protein Kinase A non-radioactive kinase assay (UBI)
[8] = tested on: HS68; test: cell proliferation under normal tissue culture conditions, HS68; conditions: Homo sapiens, Hs68, 96 h, read-out: IC50 HS68
[9] = molecular target: T1, human FGF receptor-1 (Homo sapiens, UniProt P11362); test: FGF receptor-1 autophosphorylation in CHO cells; format: cell-based
T1 construct: expressed in transfected cells; host or cells: CHO cells
Protocol: In order to measure FGF receptor-1 autophosphorylation, the human FGF receptor-1 cDNA was stably over-expressed in CHO cells using standard techniques. These cells were grown to confluency in RPMI with 10% fetal bovine serum, the media was replaced with serum-free RPMI and incubation continued for 18 hours prior to stimulation with BFGF (75 ng/ml) for 10 min at 37° C. in the absence of presence or PTK inhibitors in a concentration range of 0.1-30 μM Cell lysates were prepared under the same conditions as described above for the EGF receptor assay. Lysates were incubated with a monoclonal antibody directed against the FGF receptor-1 extracellular domain (prepared at COR Therapeutics, South San Francisco, Calif.) and the immunoprecipitated receptor was subjected to SDS-PAGE and Western blot analysis with antiphosphotyrosine antibodies as described above for EGF receptor.

[10] = tested on: HS68 cells; test: PDGF BB-induced [3H]thymidine incorporation into HS68 cells; format: cell-based; conditions: Homo sapiens, Hs68, read-out: concentration blocking PDGF BB induced thymidine incorporation by 50%
Protocol: […]. Since there are many reports in the literature implicating PDGF in diseases such as glomerulonephritis, cancer, atherosclerosis, and restenosis we tested 292 for its ability to block PDGF induced cell proliferation. A human primary fibroblast cell line, HS68 (ATCC), was plated into 96 well dishes at 150,000 cells/well in media containing 10% fetal bovine serum in DMEM. The cells were incubated at 37° C. for 7-10 days at which time they had become confluent and quiescent. […] To determine the level of cell proliferation, […] of [^3 H ]thymidine were added to each well and incubation was continued for an additional 5 hours. Cells were then washed with 5% cold trichloroacetic acid (TCA), solubilized in 0.2N NaOH, 0.1% SDS and the amount of [^3 H]thymidine incorporation was determined. […].

[11] = tested on: human cell lines (HS68, HS 27, CCD18, and WS1); conditions: 96 hours
[12] = tested on: Protein Kinase C (PKC); test: Protein Kinase C non-radioactive kinase assay (UBI); conditions: at a concentration of 40 μm

Sequence of human beta PDGFR (P09619 33-1106): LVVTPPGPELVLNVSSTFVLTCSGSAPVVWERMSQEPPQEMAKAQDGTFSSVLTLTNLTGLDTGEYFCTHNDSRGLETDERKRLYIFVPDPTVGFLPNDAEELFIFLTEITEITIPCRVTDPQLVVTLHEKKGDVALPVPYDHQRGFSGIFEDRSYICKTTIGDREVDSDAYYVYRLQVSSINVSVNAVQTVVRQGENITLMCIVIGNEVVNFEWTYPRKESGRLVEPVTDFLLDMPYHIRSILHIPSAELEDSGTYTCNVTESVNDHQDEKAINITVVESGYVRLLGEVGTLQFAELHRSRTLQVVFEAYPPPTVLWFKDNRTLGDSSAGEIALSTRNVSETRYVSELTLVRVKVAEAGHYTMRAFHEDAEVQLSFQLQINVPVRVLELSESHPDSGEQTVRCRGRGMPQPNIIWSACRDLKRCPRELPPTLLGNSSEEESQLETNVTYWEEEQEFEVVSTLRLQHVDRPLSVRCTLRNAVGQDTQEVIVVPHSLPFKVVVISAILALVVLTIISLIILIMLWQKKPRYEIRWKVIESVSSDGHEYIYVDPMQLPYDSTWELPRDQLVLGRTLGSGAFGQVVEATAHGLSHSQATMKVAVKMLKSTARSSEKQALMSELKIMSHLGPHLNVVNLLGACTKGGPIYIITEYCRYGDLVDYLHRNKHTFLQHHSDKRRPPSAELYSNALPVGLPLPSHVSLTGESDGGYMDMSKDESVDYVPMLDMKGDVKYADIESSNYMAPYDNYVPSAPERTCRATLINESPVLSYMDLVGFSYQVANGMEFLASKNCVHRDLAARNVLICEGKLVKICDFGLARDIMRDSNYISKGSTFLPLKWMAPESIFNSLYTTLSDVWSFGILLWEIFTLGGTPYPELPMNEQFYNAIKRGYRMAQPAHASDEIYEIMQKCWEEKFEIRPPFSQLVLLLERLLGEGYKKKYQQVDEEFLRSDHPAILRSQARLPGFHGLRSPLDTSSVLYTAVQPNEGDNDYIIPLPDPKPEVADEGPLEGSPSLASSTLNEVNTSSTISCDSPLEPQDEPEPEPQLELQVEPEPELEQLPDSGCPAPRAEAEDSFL
T1 sequence (P11362 22-822): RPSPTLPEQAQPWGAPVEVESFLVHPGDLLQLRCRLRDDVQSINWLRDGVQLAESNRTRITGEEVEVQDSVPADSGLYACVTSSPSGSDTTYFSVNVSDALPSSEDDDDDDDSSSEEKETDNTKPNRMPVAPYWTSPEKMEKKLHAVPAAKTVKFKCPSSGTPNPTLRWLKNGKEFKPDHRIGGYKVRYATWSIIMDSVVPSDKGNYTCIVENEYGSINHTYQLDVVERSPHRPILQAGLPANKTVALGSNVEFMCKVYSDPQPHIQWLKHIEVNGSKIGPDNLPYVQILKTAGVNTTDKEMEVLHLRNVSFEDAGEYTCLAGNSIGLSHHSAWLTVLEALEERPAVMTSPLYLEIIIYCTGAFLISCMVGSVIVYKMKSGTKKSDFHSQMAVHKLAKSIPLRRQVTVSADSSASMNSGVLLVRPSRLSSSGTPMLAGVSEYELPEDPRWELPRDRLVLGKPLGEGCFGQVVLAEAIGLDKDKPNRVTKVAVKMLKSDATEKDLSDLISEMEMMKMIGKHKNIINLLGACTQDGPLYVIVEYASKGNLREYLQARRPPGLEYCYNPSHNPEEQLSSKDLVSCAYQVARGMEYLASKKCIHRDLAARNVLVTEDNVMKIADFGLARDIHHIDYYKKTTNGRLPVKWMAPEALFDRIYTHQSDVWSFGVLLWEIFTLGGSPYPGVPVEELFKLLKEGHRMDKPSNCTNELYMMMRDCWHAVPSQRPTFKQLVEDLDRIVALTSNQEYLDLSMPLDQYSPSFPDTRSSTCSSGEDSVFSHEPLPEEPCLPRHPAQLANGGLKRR
Sequence of recombinant c-src (P12931 whole entry): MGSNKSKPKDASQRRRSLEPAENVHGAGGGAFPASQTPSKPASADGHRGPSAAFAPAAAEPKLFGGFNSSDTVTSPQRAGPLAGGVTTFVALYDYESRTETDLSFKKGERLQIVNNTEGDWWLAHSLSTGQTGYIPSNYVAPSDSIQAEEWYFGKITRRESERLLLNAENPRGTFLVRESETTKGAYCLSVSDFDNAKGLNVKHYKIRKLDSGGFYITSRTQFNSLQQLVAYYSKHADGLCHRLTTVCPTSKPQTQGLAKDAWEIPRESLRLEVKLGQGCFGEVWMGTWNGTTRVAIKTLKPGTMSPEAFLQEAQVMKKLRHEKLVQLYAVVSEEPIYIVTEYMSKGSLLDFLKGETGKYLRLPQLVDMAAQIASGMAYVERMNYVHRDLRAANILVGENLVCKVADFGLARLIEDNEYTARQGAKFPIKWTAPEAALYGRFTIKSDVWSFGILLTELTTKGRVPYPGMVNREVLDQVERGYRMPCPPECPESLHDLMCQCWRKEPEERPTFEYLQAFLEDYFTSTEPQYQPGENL

COC(=O)[C@@]1(O)C[C@H]2O[C@]1(C)n1c3ccccc3c3c4c(c5c6ccccc6n2c5c31)C(=O)NC4 [Compound K252a, K252a, reference compound]
pIC50 ([1]; 96 h): 6.00 | pIC50 ([2]; HS27, 96 h): 4.92 | pIC50 ([3]; WS1, 96 h): 5.30 | pIC50 ([4]; read-out: concentration range inhibiting cell growth by 50%): 4.92 to 6.00 | pIC50 [5]: 7.70 | pIC50 [6]: 6.57 | pIC50 [7]: 7.15 | pIC50 ([7]; IC50 PKA, Table 2, inhibition of protein kinase activity): 7.15 | pIC50 [8]: 5.30

COc1cc(O)c2c(c1)/C=C/C[C@H](O)[C@H](O)C(=O)/C=C\C[C@H](C)OC2=O [Compound 292]
pIC50 ([9]; Table 2, inhibition of protein kinase activity): < 4.52 | inhibition of FGF receptor autophosphorylation ([9]; concentrations as high as 30 μM): no detectable inhibition | pIC50 [10]: 7.80 | pIC50 ([1]; Table 3, 96 hours, 10% fetal bovine serum): < 4.52 | pIC50 ([2]; HS27, Table 3, 96 hours, 10% fetal bovine serum): < 4.52 | pIC50 ([3]; WS1, Table 3, 96 hours, 10% fetal bovine serum): < 4.52 | decrease in cell growth of any of the cell lines tested ([11]; concentrations up to 10 μm): no decrease | inhibition at 30 µM ([4]; 96 h, read-out: decrease in cell growth): 10 to 20% | IC100 ([6]; read-out: concentrations at which complete inhibition was observed): > 0.2 µM | pIC50 [7]: < 4.40 | reduction in PKA activity ([7]; at a concentration of 40 μm): did not achieve a 50% reduction | reduction in PKC activity [12]: did not achieve a 50% reduction | pIC50 [8]: < 4.52

CN[C@@H]1C[C@H]2O[C@@](C)([C@@H]1OC)n1c3ccccc3c3c4c(c5c6ccccc6n2c5c31)C(=O)NC4 [Staurosporin, reference compound]
concentration completely blocking the growth of all of the cell lines [11]: 10 nM
